Laboratory results published in patent publication US20220104493A1, “HERBICIDAL COMPOUNDS” (SYNGENTA CROP PROTECTION AG, priority 2019, published 2022).

Key:
Assay in all cases: Post-emergence efficacy, Method A
Assay type in all cases: in vivo
[1] = system: Ipomoea hederacea (IPOHE); conditions: 100=total damage to plant, 0=no damage, evaluated after 7 and 14 days, read-out: Control of weed species after post-emergence application, IPOHE
[2] = system: Amaranthus palmeri (AMAPA); conditions: 100=total damage to plant, 0=no damage, evaluated after 7 and 14 days, read-out: Control of weed species after post-emergence application, AMAPA
[3] = system: Euphorbia heterophylla (EPHHL); conditions: 100=total damage to plant, 0=no damage, evaluated after 7 and 14 days, read-out: Control of weed species after post-emergence application, EPHHL
Lolium perenne (LOLPE) = conditions: 100=total damage to plant, 0=no damage, evaluated after 7 and 14 days, read-out: Control of weed species after post-emergence application, LOLPE
Setaria faberi (SETFA) = conditions: 100=total damage to plant, 0=no damage, evaluated after 7 and 14 days, read-out: Control of weed species after post-emergence application, SETFA
[4] = system: Chenopodium album (CHEAL); conditions: 100=total damage to plant, 0=no damage, evaluated after 7 and 14 days, read-out: Control of weed species after post-emergence application, CHEAL
[5] = system: Echinochloa crus-galli (ECHCG); conditions: 100=total damage to plant, 0=no damage, evaluated after 7 and 14 days, read-out: Control of weed species after post-emergence application, ECHCG
Eleusine indica (ELEIN) = conditions: 100=total damage to plant, 0=no damage, evaluated after 7 and 14 days, read-out: Control of weed species after post-emergence application, ELEIN
[6] = system: Digitaria sanguinalis (DIGSA); conditions: 100=total damage to plant, 0=no damage, evaluated after 7 and 14 days, read-out: Control of weed species after post-emergence application, DIGSA

| SMILES | pest or weed control at 500 g/ha [1] [%] | pest or weed control at 500 g/ha [2] [%] | pest or weed control at 500 g/ha [3] [%] | pest or weed control at 500 g/ha (Lolium perenne (LOLPE)) [%] | pest or weed control at 500 g/ha (Setaria faberi (SETFA)) [%] | pest or weed control at 500 g/ha [4] [%] | pest or weed control at 500 g/ha [5] [%] | pest or weed control at 500 g/ha (Eleusine indica (ELEIN)) [%] | pest or weed control at 500 g/ha [6] [%] | pest or weed control at 1000 g/ha ([1]; 1000 g/Ha) [%] | pest or weed control at 1000 g/ha ([2]; 1000 g/Ha) [%] | pest or weed control at 1000 g/ha ([3]; 1000 g/Ha) [%] | pest or weed control at 1000 g/ha (Lolium perenne (LOLPE); 1000 g/Ha) [%] | pest or weed control at 1000 g/ha (Setaria faberi (SETFA); 1000 g/Ha) [%] | pest or weed control at 1000 g/ha ([4]; 1000 g/Ha) [%] | pest or weed control at 1000 g/ha ([5]; 1000 g/Ha) [%] | pest or weed control at 1000 g/ha (Eleusine indica (ELEIN); 1000 g/Ha) [%] | pest or weed control at 1000 g/ha ([6]; 1000 g/Ha) [%] |
| --- | --- | --- | --- | --- | --- | --- | --- | --- | --- | --- | --- | --- | --- | --- | --- | --- | --- | --- |
| O=C(O)C[n+]1ccc(-c2ncns2)cc1 [Compound A6] | 80 | 100 | 100 | 30 | 80 | 100 | 90 | 90 | 70 |  |  |  |  |  |  |  |  |  |
| O=S(=O)([O-])CCC[n+]1ccc(-c2cnsn2)cc1 [Compound A12] |  |  |  |  |  |  |  |  |  | 0 | 0 | 20 | 10 | 0 | 0 | 0 | 20 | 20 |
| N#Cc1nsc(-c2cc[n+](CCC(=O)O)cc2)n1 [Compound A89] | 10 | 30 | 20 | 10 | 80 | 30 | 60 | 80 | 90 |  |  |  |  |  |  |  |  |  |
| Cn1nnc(-c2cc[n+](CC(=O)O)cc2)n1 [Compound A34] | 0 | 70 | 0 | 0 | 0 | 0 | 0 | 0 | 0 |  |  |  |  |  |  |  |  |  |
| Cn1nnnc1-c1cc[n+](CS(=O)(=O)[O-])cc1 [Compound A57] | 0 | 100 | 20 | 0 | 0 | 80 | 60 | 20 | 30 |  |  |  |  |  |  |  |  |  |
| OCC[n+]1ccc(-c2nnc(-c3ccccc3)o2)cc1 [Compound A69, 2-[4-(5-phenyl-1,3,4-oxadiazol-2-yl)pyridin-1-ium-1-yl]ethanol 2,2,2-trifluoroacetate] | 20 | 20 | 20 | 10 | 10 | 30 | 20 | 30 | 10 |  |  |  |  |  |  |  |  |  |
| O=C(O)C[n+]1ccc(-c2ccns2)cc1 [Compound A86] | 10 | 40 | 40 | 0 | 10 | 10 | 20 | 20 | 10 |  |  |  |  |  |  |  |  |  |
| O=S(=O)([O-])CCC[n+]1ccc(-c2nnco2)cc1 [Compound A17] | 20 | 70 | 50 | 0 | 40 | 70 | 30 | 10 | 40 |  |  |  |  |  |  |  |  |  |
| O=C(O)CC[n+]1ccc(-c2ncno2)cc1 [Compound A14] | 20 | 100 | 30 | 10 | 60 | 70 | 50 | 40 | 50 |  |  |  |  |  |  |  |  |  |
| O=C(O)CC[n+]1ccc(-c2nccs2)cc1 [Compound A25] | 10 | 0 | 0 | 0 | 0 | 10 | 0 | 10 | 10 |  |  |  |  |  |  |  |  |  |
| O=S(=O)([O-])CC[n+]1ccc(-c2cnns2)cc1 [Compound A19] | 50 | 100 | 50 | 30 | 40 | 50 | 40 | 30 | 30 |  |  |  |  |  |  |  |  |  |
| O=S(=O)([O-])OCC[n+]1ccc(-c2nnco2)cc1 [Compound A64] | 20 | 50 | 30 | 10 | 20 | 30 | 50 | 20 | 30 |  |  |  |  |  |  |  |  |  |
| O=C(O)CC[n+]1ccc(-c2nc(O)ns2)cc1 [Compound A97, 3-[4-(3-hydroxy-1,2,4-thiadiazol-5-yl)pyridin-1-ium-1-yl]propanoic acid bromide] | 10 | 0 | 10 | 10 | 10 | 50 | 0 | 10 | 0 |  |  |  |  |  |  |  |  |  |
| COC(=O)C[n+]1ccc(-c2nnco2)cc1 [Compound A16] | 20 | 0 | 20 | 0 | 30 | 0 | 20 | 10 | 40 |  |  |  |  |  |  |  |  |  |
| Cn1nnnc1-c1cc[n+](CCS(=O)(=O)[O-])cc1 [Compound A26] | 10 | 0 | 20 | 10 | 10 | 10 | 10 | 10 | 20 |  |  |  |  |  |  |  |  |  |
| O=S(=O)([O-])C[n+]1ccc(-c2cnns2)cc1 [Compound A3, [4-(thiadiazol-5-yl)pyridin-1-ium-1-yl]methanesulfonate] | 80 | 100 | 80 | 20 | 80 | 90 | 40 | 50 | 70 |  |  |  |  |  |  |  |  |  |
| Cn1nnc(-c2cc[n+](CCS(=O)(=O)[O-])cc2)n1 [Compound A27] | 10 | 10 | 20 | 0 | 0 | 10 | 0 | 0 | 0 |  |  |  |  |  |  |  |  |  |
| Cn1nccc1-c1cc[n+](CCOS(=O)(=O)[O-])cc1 [Compound A74] | 10 | 10 | 20 | 10 | 20 | 40 | 20 | 20 | 30 |  |  |  |  |  |  |  |  |  |
